Reference: patent publication US20110009616A1, “AGENT FOR PREVENTING ARTERIOSCLEROSIS” (priority 2006, published 2011)
Read-outs that look alike come from different tables or passages of the source.

Key:
[1] = system: normal bovine aortic endothelial cell (BAEC); assay: DiI-OxLDL uptake into normal bovine aortic endothelial cells (Example 7); assay type: cell-based; settings: FIG. 6
[2] = biological target: T1, SR-AII (Homo sapiens, UniProt P21757); assay: DiI-OxLDL uptake into cells expressing SR-AII (Example 7); assay type: cell-based; settings: FIG. 6
T1 construct: expressed in transfected cells; host or cells: COS-1 cells (transient, 48 h), pDEST26
T1 sequence (P21757 1-358 isoform P21757-2): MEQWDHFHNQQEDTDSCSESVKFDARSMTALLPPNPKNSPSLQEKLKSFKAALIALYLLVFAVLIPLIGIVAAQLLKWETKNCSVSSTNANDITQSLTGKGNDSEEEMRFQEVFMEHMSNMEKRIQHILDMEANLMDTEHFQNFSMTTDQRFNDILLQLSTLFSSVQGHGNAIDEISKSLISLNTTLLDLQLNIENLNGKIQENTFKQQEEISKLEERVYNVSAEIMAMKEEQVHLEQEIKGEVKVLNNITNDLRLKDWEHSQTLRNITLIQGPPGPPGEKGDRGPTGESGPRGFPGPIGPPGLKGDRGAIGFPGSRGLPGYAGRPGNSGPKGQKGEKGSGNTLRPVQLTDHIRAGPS
Protocol: As for cDNA cloning of human SR-AII, the full-length sequence (1,077 base pairs) was obtained by PCR using cDNA derived from human normal lien (Invitrogen) as a template. Additionally a CACC sequence was added to 5′-terminal of the upstream primer. The amplified PCR product was inserted to a pENTR/D-TOPO vector (Invitrogen) and transformed into Mach1 cells (Invitrogen). From the obtained transformant, clones supposed to have the plasmid which was correctly inserted with the SR-AII full-length sequence were selected in usual ways such as a colony PCR method, and the plasmid sequence was sequenced. Furthermore, for the plasmid ascertained to have the correct sequence by sequencing, a site-specific recombination reaction to pDEST26 (Invitrogen) as an expression vector for animal cells was carried out according to a manual. The obtained pDEST26 vector having the full-length sequence of […] was transformed into COS-1 cells (Health Science Research Resources Bank), and cultivated for 48 hours to obtain a transient expressed cell line. […] Nystatin (manufactured by Wako) was used as a specific inhibitor of caveola transport.

[3] = rat; Non-patent Document 16; cited from earlier work
[4] = system: smooth muscle cells; assay: Oxidized LDL uptake into smooth muscle cells, IN Cell Analyzer (Example 8); assay type: cell-based; settings: FIG. 7
Protocol: As for the compounds in Examples 1 and 2 and Comparative Example 6, the abilities to suppress the oxidized LDL uptake into the smooth muscle cells were evaluated in a similar method to Example 6.
The smooth muscle cells were prepared to 1×10^5 cells/mL and seeded into a 96-well plate. After cultivating for two days, the cells were treated by each inhibitor in a similar method to Example 6. After the treatment of each inhibitor, the cells were washed with PBS three times and fixed with a 10% formalin solution at room temperature in the dark for 10 minutes. The fixed cells were washed with ultrapure water twice and the nuclei were dyed with DAPI. These cells were analyzed with “IN Cell Analyzer” (manufactured by GE Healthcare Bio-Sciences KK), and the uptake number of Dil-labeled oxidized LDL into the smooth muscle cells was divided by the number of nuclei. Furthermore, 4 fields of view per well were measured and the measurements were n=3 per treatment.

[5] = biological target: T2, hLOX-1 (Homo sapiens, UniProt P78380); assay: Fluorescently labeled oxidized LDL uptake into CHO cells expressing hLOX-1, tetracycline induction (Example 6); assay type: cell-based; settings: FIG. 5; control = 100%; compared with anti-hLOX antibody
T2 construct: expressed in transfected cells; host or cells: CHO-K1 Tet-On cell line (Clontech), pTRE-hLOX1 (B), doxycycline induction
Protocol: As for the same compounds as in Example 5, using Chinese hamster ovary (CHO) cells stably expressing bLOX-1, an ability to suppress fluorescently labeled oxidized LDL uptake into the CHO cells through the bLOX-1 was evaluated. Furthermore, as for the hLOX-1, in the CHO cells using an induction system of tetracycline gene expression, an ability to suppress fluorescently labeled oxidized LDL uptake through the hLOX-1 was evaluated.
As the CHO cells which express the hLOX-1 depending on tetracycline concentrations, the cells transfected with the plasmid described below in a known method were used. The transfected plasmid has a system where a hLOX-1 coding region integrated in pcDNA3.1-hLOX1-V5 (Journal of Molecular and Cellular Cardiology 39 (3) 553-561 (2005)) is mounted in a tetracycline response vector and the expression of hLOX-1 can be controlled depending on the concentration of tetracycline or doxycycline.
An assay using the CHO cells was carried out in the following manner. […] Then, the oxidized LDL labeled with 1,1′-dioctadecyl-3,3,3′,3′-tetramethylindocarbocyanine perchlorate (DiI, manufactured by Invitrogen), a carbocyanine fluorescence pigment, was applied to each well so as to be 5 μg/mL, and, under the environment described above, the uptake of the fluorescently labeled oxidized LDL was performed into the CHO cells for 4 hours. […]

[6] = rats, intravenous injection; Non-patent Document 17; cited from earlier work
[7] = system: caveola transport pathway; assay: Uptake of CTB, transport marker of caveola pathway, into COS-1 cells (Example 7); assay type: cell-based, African green monkey; settings: FIG. 6
[8] = human; Non-patent Document 15; cited from earlier work

## C=Cc1c(C)c2cc3nc(c4c5[nH]c(cc6nc(cc1[nH]2)C(C)=C6CC)c(C)c5C(=O)[C@@H]4C(=O)OC)[C@@H](CCC(=O)O)[C@@H]3C [pheophorbide a]
[1]
  inhibitory activity on DiI-OxLDL uptake, compared with anti-LOX-1 antibody: stronger than that of the anti-LOX-1 antibody
[2]
  ability to suppress oxidized LDL uptake by SR-A: the ability to suppress the oxidized LDL uptake by SR-A
[3]
  ingestion causing photosensitivity disease: ≥ 220 mg/kg
[4]
  ability to suppress oxidized LDL uptake in smooth muscle cells: very strong ability to suppress the uptake
  suppression of oxidized LDL uptake in smooth muscle cells, compared with anti-LOX-1 antibody: stronger suppression effect than that of the anti-LOX-1 antibody
[5]
  amount of oxidized LDL uptake into CHO cells expressing hLOX-1: stronger uptake inhibition on hLOX-1 than that of the anti-hLOX antibody
[6]
  accumulation to skin: low
  main accumulation target: reticuloendothelial system
[7]
  inhibition of caveola transport pathway (CTB uptake): inhibits the caveola transport pathway significantly
[8]
  ingestion causing photosensitivity disease: ≥ 500 mg/day
